Consider three compounds from US10894794B1, “Substituted [1,2,4]triazolo[4,3-a]pyrazines as antidiabetics” (King Abdulaziz University, priority 2019, dated 2021).

The assay concerns 14 h overnight-fasted diabetic mice. The assay is described as follows: Blood glucose after introduction of food for one hour (meal tolerance test). In kind it is in vivo. The settings on record: for antihyperglycemic activity after introduction of food (blood glucose rise and total AUC(0-180), in words): 50 mg/kg, 3 h before introduction of food; for Area under the curve AUC(0-180) after meal feeding: Day 1, 50 mg/kg oral, 3 hr pretreated. As for the experimental part: The rational of this test was to determine the ability of the tested compounds to modulate glucose utilization after the introduction of food, after 3 h of drug administration to 14 h overnight-fasted mice (feeding with normal diet was done for 1 hr only, then food was removed during the remaining time of the test). This model is analogous to oral glucose tolerance tests (OGTT) used clinically to evaluate glycemic control, except that the meal was composed of fats, proteins and carbohydrates, and thus was a more realistic representation of the nutritional makeup of normal food. The main purpose is that during meal digestion, food contents e.g. carbohydrates, proteins and fats, were reported to cause an increase in the production of the GLP-I from the L-cells in ileum and colon. The produced GLP-I goes into circulation directly and affects insulin secretion from pancreatic β-cells. Both the GPL-I and insulin levels are expected to be high especially in the presence of a […] inhibitor.
Animals were Distributed Between 17 Groups (n=6) as Follows: • a. Group 1. Animals of this group were overnight-fasted normoglycemic mice and received the vehicle (1% CMC-Na) at a volume of 10 ml/kg/day for 4 consecutive days. • b. Group 2: overnight-fasted diabetic mice received the vehicle (1% CMC-Na) at a volume of 10 ml/kg/day for 4 consecutive days and served as a negative control. • c. Group 3: overnight fasted diabetic mice received sitagliptin at a dose of 50 mg/kg/day for 4 consecutive days in 1% CMC (in a volume of 10 ml/kg) and served as positive control. • d. Groups 4-19: Animals of these groups were overnight-fasted diabetic mice and received the tested compounds 128, 129, 130, 131,140, 142 at a dose of 50 mg/kg/day for 4 consecutive days in 1% CMC (volume of 10 ml/kg). Food was introduced for one hour only then food was removed immediately. Blood glucose levels were determined just before and 3 h after drug administration and then at 0, 60, 120 and 180 min after meal. Blood Sampling and Blood Glucose Determination
Blood samples were collected from the tail vein and the blood glucose level was determined. Curves of blood glucose levels (mg/dL) versus the time intervals (min) were constructed and the area under the curves (AUCs) were calculated by the method of calculation embedded in GraphPad Prism® v. 5.0 (GraphPad Software, San Diego, Calif., USA). AUCs of the curves of the different groups were compared and tested for significance against control groups.

Turning to `N#Cc1cccc(NC(=O)CN2CCn3c(nnc3C(F)(F)F)C2)c1` [GLP-142], the “antihyperglycemic activity after introduction of food (blood glucose rise and total AUC(0-180), in words)” value (shortened to “antihyperglycemic activity”) is reported as “significant antihyperglycemic activity”. In the case of `O=C(CN1CCn2c(nnc2C(F)(F)F)C1)NC1CCCCC1` [GLP-140], the “antihyperglycemic activity” value is “significant antihyperglycemic activity”; the “Area under the curve AUC(0-180) after meal feeding” value is listed as 72873 ± mg · dL^−1 · min.

Turning to `C[C@H](NC(=O)c1cccc(Cl)c1)C(=O)N1CCn2c(nnc2C(F)(F)F)C1` [GLP-130], the “antihyperglycemic activity” value is “significant antihyperglycemic activity”; the “Area under the curve AUC(0-180) after meal feeding” value is recorded as 50478 ± mg · dL^−1 · min.
